From patent publication US20130225615A1, “2-CYCLOQUINAZOLINE DERIVATIVES AND METHODS OF USE THEREOF” (AMBIT BIOSCIENCES CORPORATION, priority 2010, published 2013) come the findings set out here.

In general, IC50 refers to the concentration that gives 50% inhibition. For orientation: Kd means the free concentration of one partner at which half of the binding sites on the other are occupied at equilibrium, for simple one-to-one binding. Read a low Kd as higher affinity.

Where only a bound is given, the exact number is not on record here.

The subject of assay [1] is GM-CSFR/JAK2/STAT5 pathway in CSTF-1 cells. The experiment in a line: CSTF-1 cell-based reporter assay (beta-lactamase, GM-CSF stimulated). Particulars: Homo sapiens; GM-CSF at 2 ng/mL, 4 hours; read-out: Cell Assay: CS TF-1 reporter assay IC50. Here is the method:
CSTF-1 Cell-Based Reporter Assay
CSTF-1 cells are derived from the human erythroleukemia cell line that is growth dependent on GM-CSF and has an intact GM-CSFR/JAK2/STAT5 pathway. The cell line contains stably integrated beta-lactamase reporter gene under the control of the […] (irf 1) response element recognized by the activated transcription factor STATS. csTF-1 cells (Invitrogen K1219) were washed with assay media (97% OPTIMEM/0.5% dialyzed FBS/0.1 mM NEAA/1 mM Na pyr/P/S) and seeded in the same media at 5×10^5 cell/mL in T150 flask. After 16 hour incubation, cells were seeded at 2×10^5 cell/well in 50 μl volume, into Costar, clear bottom, 96-well assay plates. Serial dilutions of compounds were added to the plates with final DMSO concentration at 0.5% and GM-CSF at 2 ng/mL and the plates were then incubated at […] and 5% CO2 for 4 hours. The plates were brought to room temperature before adding Substrate Mixture according to manufacturer's protocol (Invitrogen, Catalog #K1085). The assay plates containing the substrate mixture were incubated in the dark at room temperature for 2 hours. Blue and green fluorescence was measured with excitation at 409 nm and emission at 460 nm (for blue) and excitation at 409 nm and emission at 530 nm (for green) using Spectra Max Gemini EM.
Background: Reporter assays use an easily measured gene product as a stand-in for the process of interest.

In a further assay the target is T1, JAK2 (Homo sapiens, UniProt O60674).
T1 construct: made in house
The experiment in a line: Competition binding assay, JAK2. The text has this: (§1) Determination of Binding Constants (Kd) of the Compounds Against JAK Kinases
(§2) Competition binding assays used herein were developed, validated and performed as described in Fabian et al., Nature Biotechnology 2005, 23,329-336. Kinases were produced as fusions to T7 phage (See, Fabian et al. or WO04/015142) or alternatively, the kinases were expressed in HEK-293 cells and subsequently tagged with DNA for PCR detection (See, WO08/005,310). For the binding assays, streptavidin-coated magnetic beads were treated with biotinylated affinity ligands for 30 min at rt to generate affinity resins. The liganded beads were blocked with excess biotin and washed with blocking buffer (SeaBlock (Pierce), 1% BSA, 0.05% Tween 20, 1 mM DTT) to remove unbound ligand and to reduce non-specific binding. Binding reactions were assembled by combining kinase, liganded affinity beads, and test compounds in 1× binding buffer (20% SeaBlock, 0.17×PBS, 0.05% Tween 20, 6 mM DTT). Test compounds were prepared as 100× stocks in DMSO and rapidly diluted into the aqueous environment. DMSO was added to control assays lacking a test compound. Primary screen interactions were performed in polypropylene 384-well plates in a final volume of 34 μL, while Kd determinations were performed in polystyrene 96-well plates in a final volume of 135 μL. The assay plates were incubated at room temperature with shaking for 1 hour, long enough for binding reactions to reach equilibrium, and the affinity beads were washed extensively with wash buffer (1×PBS, 0.05% Tween 20) to remove unbound protein. The beads were then resuspended in elution buffer (1×PBS, 0.05% Tween 20, 2 μM non-biotinylated affinity ligand) and incubated at room temperature with shaking for 30 min. The kinase concentration in the eluates was measured by quantitative PCR. Each kinase was tested individually against each compound. Kds were determined using eleven serial threefold dilutions. A selectivity score, which is a quantitative measure of selectivity of a compound against a panel of enzymes, may be calculated for a compound by dividing the number of enzymes for which a compound meets a set criteria, (for example, a binding constant of 100 nM or less), by the total number of enzymes tested.

The next assay has as its target T2, JAK3 (Homo sapiens, UniProt P52333).
T2 construct: made in house
T2 sequence (P52333 1-1124): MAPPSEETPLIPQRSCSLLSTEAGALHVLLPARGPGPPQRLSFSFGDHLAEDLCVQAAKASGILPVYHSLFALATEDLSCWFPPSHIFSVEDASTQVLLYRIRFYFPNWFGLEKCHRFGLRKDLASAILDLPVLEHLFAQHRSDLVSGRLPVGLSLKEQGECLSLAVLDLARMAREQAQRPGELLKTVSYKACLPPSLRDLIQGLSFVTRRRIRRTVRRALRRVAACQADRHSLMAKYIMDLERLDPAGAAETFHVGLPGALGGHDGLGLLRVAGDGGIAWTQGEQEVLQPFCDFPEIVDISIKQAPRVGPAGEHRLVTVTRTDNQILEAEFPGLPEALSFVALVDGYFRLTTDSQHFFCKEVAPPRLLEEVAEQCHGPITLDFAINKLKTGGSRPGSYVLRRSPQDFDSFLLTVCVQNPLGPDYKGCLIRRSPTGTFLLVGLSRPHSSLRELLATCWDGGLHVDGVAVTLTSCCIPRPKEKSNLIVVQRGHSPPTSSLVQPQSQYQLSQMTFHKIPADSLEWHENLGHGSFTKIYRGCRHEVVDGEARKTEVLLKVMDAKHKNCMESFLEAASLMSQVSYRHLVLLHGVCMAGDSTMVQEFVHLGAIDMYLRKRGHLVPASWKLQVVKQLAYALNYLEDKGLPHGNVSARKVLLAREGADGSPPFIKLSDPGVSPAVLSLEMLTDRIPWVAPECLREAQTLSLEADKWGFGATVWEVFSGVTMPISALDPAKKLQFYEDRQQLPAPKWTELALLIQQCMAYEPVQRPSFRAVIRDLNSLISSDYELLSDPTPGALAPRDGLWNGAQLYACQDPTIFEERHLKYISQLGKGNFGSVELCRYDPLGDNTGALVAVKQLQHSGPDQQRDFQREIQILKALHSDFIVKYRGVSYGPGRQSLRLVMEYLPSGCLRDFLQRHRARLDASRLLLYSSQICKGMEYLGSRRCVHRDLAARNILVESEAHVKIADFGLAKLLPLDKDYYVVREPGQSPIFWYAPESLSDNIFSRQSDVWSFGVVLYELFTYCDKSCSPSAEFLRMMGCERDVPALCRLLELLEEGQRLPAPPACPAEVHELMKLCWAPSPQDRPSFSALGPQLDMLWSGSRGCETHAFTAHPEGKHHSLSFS
As to the kind of experiment: Competition binding assay, JAK3.
Description: as §1, §2

In a further assay the target is T3, TYK2 (Homo sapiens, UniProt P29597).
T3 construct: made in house
As to the kind of experiment: Competition binding assay, TYK2.
Description: as §1, §2

The subject of assay [2] is panel of distinct kinases excluding mutant variants, typically 359 or 386 kinases. As to the kind of experiment: Kinase selectivity score S10 from binding panel. Particulars: compound at 10 μM; fraction of kinases with inhibition of 90% or greater. Here is the method:
as §2

T3 sequence (P29597 whole entry): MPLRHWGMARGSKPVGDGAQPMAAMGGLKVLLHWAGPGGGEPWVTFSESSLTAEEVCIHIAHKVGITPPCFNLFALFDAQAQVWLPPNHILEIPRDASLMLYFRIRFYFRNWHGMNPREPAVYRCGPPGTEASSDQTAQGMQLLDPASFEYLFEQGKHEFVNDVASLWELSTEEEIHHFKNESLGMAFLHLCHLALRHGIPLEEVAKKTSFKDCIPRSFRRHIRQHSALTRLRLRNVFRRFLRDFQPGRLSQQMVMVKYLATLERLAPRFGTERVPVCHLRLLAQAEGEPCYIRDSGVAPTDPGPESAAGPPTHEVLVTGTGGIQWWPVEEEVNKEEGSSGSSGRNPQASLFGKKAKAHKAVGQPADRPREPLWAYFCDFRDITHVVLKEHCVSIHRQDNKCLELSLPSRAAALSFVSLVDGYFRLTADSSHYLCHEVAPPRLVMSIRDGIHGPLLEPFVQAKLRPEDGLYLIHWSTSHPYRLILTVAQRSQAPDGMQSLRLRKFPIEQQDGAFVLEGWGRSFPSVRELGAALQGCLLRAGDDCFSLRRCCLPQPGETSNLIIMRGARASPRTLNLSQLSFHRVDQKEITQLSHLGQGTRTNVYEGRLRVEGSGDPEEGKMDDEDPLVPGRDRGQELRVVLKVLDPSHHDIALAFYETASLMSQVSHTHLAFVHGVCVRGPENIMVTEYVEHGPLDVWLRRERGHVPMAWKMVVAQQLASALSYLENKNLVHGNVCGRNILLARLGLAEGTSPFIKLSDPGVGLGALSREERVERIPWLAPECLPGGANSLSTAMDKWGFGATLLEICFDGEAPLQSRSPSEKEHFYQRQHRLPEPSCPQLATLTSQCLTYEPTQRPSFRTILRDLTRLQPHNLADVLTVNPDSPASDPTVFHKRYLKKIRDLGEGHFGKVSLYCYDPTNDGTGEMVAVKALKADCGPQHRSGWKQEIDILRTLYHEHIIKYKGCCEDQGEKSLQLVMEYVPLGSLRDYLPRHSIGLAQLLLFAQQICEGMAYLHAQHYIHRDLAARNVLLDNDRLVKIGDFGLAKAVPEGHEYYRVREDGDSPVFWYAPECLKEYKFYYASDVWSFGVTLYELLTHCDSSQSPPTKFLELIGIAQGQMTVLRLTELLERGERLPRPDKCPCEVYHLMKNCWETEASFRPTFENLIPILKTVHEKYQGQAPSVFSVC
T1 sequence (O60674 whole entry): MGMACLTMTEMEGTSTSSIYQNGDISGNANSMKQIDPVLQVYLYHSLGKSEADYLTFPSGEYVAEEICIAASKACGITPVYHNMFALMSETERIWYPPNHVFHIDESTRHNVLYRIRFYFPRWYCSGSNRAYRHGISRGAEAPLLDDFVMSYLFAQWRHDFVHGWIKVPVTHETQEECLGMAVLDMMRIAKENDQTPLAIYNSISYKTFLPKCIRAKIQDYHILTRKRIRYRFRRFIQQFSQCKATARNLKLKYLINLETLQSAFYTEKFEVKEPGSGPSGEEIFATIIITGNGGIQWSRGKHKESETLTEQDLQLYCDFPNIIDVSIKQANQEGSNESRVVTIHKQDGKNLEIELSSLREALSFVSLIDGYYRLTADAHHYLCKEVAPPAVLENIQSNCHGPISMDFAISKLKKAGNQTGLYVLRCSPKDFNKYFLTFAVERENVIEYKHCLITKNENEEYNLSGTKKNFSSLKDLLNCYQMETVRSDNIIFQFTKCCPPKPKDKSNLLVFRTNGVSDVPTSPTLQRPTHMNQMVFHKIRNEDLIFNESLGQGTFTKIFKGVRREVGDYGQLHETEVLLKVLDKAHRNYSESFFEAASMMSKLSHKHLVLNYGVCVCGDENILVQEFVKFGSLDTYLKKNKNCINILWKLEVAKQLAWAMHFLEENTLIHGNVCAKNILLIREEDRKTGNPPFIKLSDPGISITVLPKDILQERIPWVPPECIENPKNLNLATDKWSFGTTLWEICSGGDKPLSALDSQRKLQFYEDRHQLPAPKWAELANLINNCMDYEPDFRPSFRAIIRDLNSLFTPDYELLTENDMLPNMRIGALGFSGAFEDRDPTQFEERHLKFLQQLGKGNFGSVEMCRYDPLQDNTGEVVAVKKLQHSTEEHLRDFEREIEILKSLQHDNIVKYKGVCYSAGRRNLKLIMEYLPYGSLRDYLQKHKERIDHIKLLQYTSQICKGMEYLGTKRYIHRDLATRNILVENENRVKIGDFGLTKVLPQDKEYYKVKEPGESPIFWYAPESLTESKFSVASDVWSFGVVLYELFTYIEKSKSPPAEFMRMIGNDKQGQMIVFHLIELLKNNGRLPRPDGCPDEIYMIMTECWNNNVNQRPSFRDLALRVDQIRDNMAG

On to `Cc1cc(Nc2nc([C@]3(c4ccc(F)cc4)C[C@H](O)C3)nc3ccccc23)n[nH]1` [Example 1, (1S,3S)-3-(4-fluorophenyl)-3-(4-(5-methyl-1H-pyrazol-3-ylamino)quinazolin-2-yl)cyclobutanol], for which the IC50 in assay [1] lay within 100 to 500 nM. In addition, the dissociation constant Kd on JAK2 is at most 1 nM; on JAK3 it was 10 to 100 nM; on TYK2, 10 to 100 nM. The “S-Score: S(10) at 10 μM” value in assay [2] is “A (A≦0.3)”.
As to `Cc1cc(Nc2nc([C@]3(c4ccc(F)cc4)C[C@@H](F)C3)nc3ccccc23)n[nH]1` [Example 2, 2-((1R,3R)-3-fluoro-1-(4-fluorophenyl)cyclobutyl)-N-(5-methyl-1H-pyrazol-3-yl)quinazolin-4-amine], in assay [1], the half-maximal inhibitory concentration (IC50) was over 500 nM. Also, the results for the dissociation constant (Kd) at JAK2, at JAK3 and at TYK2 were 1 to 10 nM, 10 to 100 nM and 10 to 100 nM, respectively. Besides, the “S-Score: S(10) at 10 μM” value in assay [2] is recorded as “A (A≦0.3)”.
On to `Cc1cc(Nc2nc([C@]3(c4ccc(F)cc4)C[C@@H](O)C3)nc3ccccc23)n[nH]1` [Example 3, (1R,3R)-3-(4-fluorophenyl)-3-(4-((5-methyl-1H-pyrazol-3-yl)amino)quinazolin-2-yl)cyclobutanol], for which, in assay [1], the IC50 is 100 to 500 nM. Further, the results for the Kd at JAK2, on JAK3 and at TYK2 were at most 1 nM, 10 to 100 nM and 10 to 100 nM, respectively. In addition, in assay [2], the “S-Score: S(10) at 10 μM” value is on record as “A (A≦0.3)”.
With `Cc1cc(Nc2nc(C3(c4ccc(F)cc4)CCOCC3)nc3ccccc23)n[nH]1` [Example 4, 2-(4-(4-fluorophenyl)tetrahydro-2H-pyran-4-yl)-N-(5-methyl-1H-pyrazol-3-yl)quinazolin-4-amine], the 50% inhibitory concentration (IC50) in assay [1] was in the range of 100 to 500 nM. Further, the Kd is 1 to 10 nM on JAK2, 10 to 100 nM on JAK3 and at most 10 nM at TYK2. In addition, the “S-Score: S(10) at 10 μM” value in assay [2] was “A (A≦0.3)”.
